Experimental data: ChEMBL document CHEMBL1201862, “PubChem BioAssay data set” (2004)
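Protocol summary: plate cells (96-well), add compound at 5 concentrations, incubate 48 h, interpolate endpoints linearly. Abbreviation: GI50, concentration required for 50% inhibition of growth.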 The source made the active and inactive calls. Cut-off read from the data, not from the text of the source: active = GI50 up to about 1.1 µM and inactive = higher.

Tests used:
Test in all cases: NCI-60 cell line screen, 48 h
COLO 205 = system: COLO 205
EKVX = system: EKVX
HCC 2998 = system: HCC 2998
HOP-62 = system: HOP-62
HOP-92 = system: HOP-92
IGROV-1 = system: IGROV-1
M14 = system: M14
OVCAR-5 = system: OVCAR-5
SR = system: SR
A549 = system: A549
K562 = system: K562
MOLT-4 = system: MOLT-4
OVCAR-4 = system: OVCAR-4

Measured: GI50

CCOC(=O)C12CCC(=O)C=C1[C@@H](C)C(=O)CC2 (stereo partly drawn)
inactive: COLO 205 > 100 µM | EKVX > 100 µM | HCC 2998 > 100 µM | HOP-62 > 100 µM | HOP-92 93.3 µM | IGROV-1 > 100 µM | M14 > 100 µM | OVCAR-5 > 100 µM | SR > 100 µM

NCc1ccccc1C1CSCSC1
inactive: A549 > 100 µM | K562 > 100 µM | MOLT-4 > 100 µM | OVCAR-4 > 100 µM
